Laboratory results from ChEMBL document CHEMBL3421576, “N-((1,3-Diphenyl-1H-pyrazol-4-yl)methyl)anilines: A novel class of anti-RSV agents” (Bioorg Med Chem Lett, 2015).

What was measured:
[1] = system: Respiratory syncytial virus; assay: Antiviral activity against RSV infected in African green monkey Vero 76 cells after 5 days by plaque reduction assay; type: functional, organism-based
Enterovirus C = assay: Antiviral activity against Poliovirus Sb-1 infected in African green monkey Vero 76 cells after 2 days by plaque reduction assay; type: functional, organism-based
[2] = Cytotoxicity against bovine MDBK cells assessed as cell viability after 72 hrs by MTT method; type: cell-based, Bos taurus; conditions: cattle
Coxsackievirus B5 = assay: Antiviral activity against Coxsackievirus B5 infected in African green monkey Vero 76 cells after 3 days by plaque reduction assay; type: functional, organism-based
[3] = Selectivity index, ratio of CC50 for African green monkey Vero 76 cells to EC50 for RSV infected in African green monkey Vero 76 cells
[4] = system: Human immunodeficiency virus 1; assay: Antiviral activity against HIV1 infected in human MT4 cells assessed as protection against viral-induced cytopathogenecity after 4 days by MTT method; type: functional, organism-based; conditions: Human immunodeficiency virus 1, MT4, 96 h
[5] = system: Mammalian orthoreovirus 1; assay: Antiviral activity against Reovirus 1 infected in hamster BHK21 cells assessed as protection against viral-induced cytopathogenecity after 3 to 4 days by MTT method; type: functional, cell-based; conditions: Mammalian orthoreovirus 1, BHK-21
[6] = Cytotoxicity against hamster BHK21 cells assessed as cell viability after 72 hrs by MTT method; type: cell-based, Mesocricetus auratus, BHK-21
Human alphaherpesvirus 1 = assay: Antiviral activity against HSV1 infected in African green monkey Vero 76 cells after 3 days by plaque reduction assay; type: functional, organism-based
[7] = Cytotoxicity against African green monkey Vero 76 cells assessed as cell viability after 48 to 96 hrs by MTT method; type: cell-based; conditions: chlorocebus sabaeus
[8] = Cytotoxicity against human MT4 cells assessed as cell viability after 96 hrs by MTT method; type: cell-based
[9] = Selectivity index, ratio of CC50 for bovine MDBK cells to EC50 for BVDV infected in bovine MDBK cells
Yellow fever virus = assay: Antiviral activity against YFV infected in hamster BHK21 cells assessed as protection against viral-induced cytopathogenecity after 3 to 4 days by MTT method; type: functional, organism-based, BHK-21
Vaccinia virus = assay: Antiviral activity against Vaccinia virus infected in African green monkey Vero 76 cells after 3 days by plaque reduction assay; type: functional, organism-based, Orthopoxvirus vaccinia
[10] = system: Vesicular stomatitis virus; assay: Antiviral activity against VSV infected in African green monkey Vero 76 cells after 2 days by plaque reduction assay; type: functional, organism-based
[11] = system: Bovine viral diarrhea virus 1; assay: Antiviral activity against BVDV infected in bovine MDBK cells assessed as protection against viral-induced cytopathogenecity after 3 to 4 days by MTT method; type: functional, organism-based
[12] = Selectivity index, ratio of CC50 for hamster BHK21 cells to EC50 for YFV infected in hamster BHK21 cells; design: species or system BHK-21
[13] = human respiratory syncytial virus, Vero, 120 h
[14] = Enterovirus C, Sb-1, Vero, 48 h
[15] = Human alphaherpesvirus 1, Vero, 72 h
[16] = Orthopoxvirus vaccinia, Vero, 72 h
[17] = Vesicular stomatitis virus, Vero, 48 h
[18] = Bovine viral diarrhea virus isolates and strains, MDBK

Structure (SMILES) | EC50 [1, 13] [µM] | EC50 (Enterovirus C; [14]) [µM] | CC50 at 72 h [2] [µM] | EC50 (Coxsackievirus B5; Enterovirus B, Vero, 72 h) [µM] | Ratio CC50/EC50 [3] | EC50 [4] [µM] | EC50 [5] [µM] | CC50 at 72 h [6] [µM] | EC50 (Human alphaherpesvirus 1; [15]) [µM] | CC50 ([7]; Vero 76 cells) [µM] | CC50 at 96 h [8] [µM] | EC50 (Yellow fever virus; Yellow fever virus, BHK-21) [µM] | EC50 (Vaccinia virus; [16]) [µM] | EC50 [10, 17] [µM] | EC50 [11, 18] [µM] | also measured
Clc1ccc(NCc2cn(-c3ccccc3)nc2-c2ccccc2)cc1 | 6 | > 65 | > 100 | > 65 | 10.8 | > 100 | > 100 | > 100 | > 65 | 65 | > 100 | 29 | > 65 | > 65 | 29 | Ratio CC50/EC50 [9]: >3.4
Cc1ccc(-c2nn(-c3ccccc3)cc2CNc2ccccc2)cc1 | 23 | > 52 | > 100 | > 52 | 2.3 | > 100 | > 100 | > 100 | > 52 | 52 | > 100 | 38 | > 52 | > 52 | > 100 | Ratio CC50/EC50 [12]: >2.6
Clc1ccc(NCc2cn(-c3ccccc3)nc2-c2ccc(Cl)cc2)cc1 | 13 | > 90 | > 100 | > 90 | 6.9 | > 100 | > 73 | 73 | > 90 | 90 | > 100 | > 73 | > 90 | > 90 | 31 | Ratio CC50/EC50 [9]: >3.2
O=c1cnn([C@@H]2O[C@H](CO)[C@@H](O)[C@H]2O)c(=O)[nH]1 [6-AZAURIDINE] | 0.9 | – | – | – | 11.1 | – | – | > 100 | – | 10 | – | 46 | – | – | – | Ratio CC50/EC50 [12]: >2.2
Clc1ccc(NCc2cn(-c3ccccc3)nc2-c2ccc(Br)cc2)cc1 | – | – | – | – | >11.1 | – | – | – | – | – | – | – | – | – | – | EC50 ([1]; vero): 9 µM; EC50 (Enterovirus C; vero): > 100 µM; EC50 (Coxsackievirus B5; vero): > 100 µM; Ratio CC50/EC50 [12]: >2.3; EC50 (Human alphaherpesvirus 1; vero): > 100 µM; CC50 ([7]; vero 76): > 100 µM; EC50 (Yellow fever virus; bhk-21): 43 µM; EC50 (Vaccinia virus; vero): > 100 µM; EC50 ([10]; vero): > 100 µM; EC50 ([11]; mdbk): ≥ 100 µM
COc1c(C)c2c(c(O)c1C/C=C(\C)CCC(=O)O)C(=O)OC2 [MYCOPHENOLIC ACID] | – | – | – | – | – | – | – | – | – | 19 | – | – | 1.5 | – | – | –
NC(=O)c1ncn([C@@H]2O[C@H](CO)[C@@H](O)[C@H]2O)n1 [RIBAVIRIN] | 35 | – | 57 | – | >2.8 | – | – | – | – | > 100 | – | – | – | – | 19 | Ratio CC50/EC50 [9]: 3
Cc1cc(CCCOc2c(C)cc(-c3noc(C(F)(F)F)n3)cc2C)on1 [PLECONARIL] | – | 2.2 | – | 0.005 | – | – | – | – | – | 80 | – | – | – | – | – | –
FC(F)(F)c1ccc(NCc2cn(-c3ccccc3)nc2-c2ccccc2)cc1 | > 17 | > 75 | 34 | > 75 | – | > 100 | > 37 | 37 | > 75 | 17 | > 100 | > 37 | > 75 | > 75 | > 34 | –
Nc1nc2c(ncn2COCCO)c(=O)[nH]1 [ACYCLOVIR] | – | – | – | – | – | – | – | – | 2.8 | > 100 | – | – | – | – | – | –
Brc1ccc(-c2nn(-c3ccccc3)cc2CNc2ccccc2)cc1 | 9 | > 52 | > 100 | > 52 | 5.8 | > 100 | > 100 | > 100 | > 52 | 52 | > 100 | 20 | > 52 | > 52 | > 100 | Ratio CC50/EC50 [12]: >5
Cc1ccc(-c2nn(-c3ccccc3)cc2CNc2ccc(Br)cc2)cc1 | 11 | > 92 | > 100 | > 92 | 8.4 | > 100 | > 100 | > 100 | > 92 | 92 | > 100 | > 100 | > 92 | > 92 | > 100 | –
C[C@@]1(O)[C@H](O)[C@@H](CO)O[C@H]1n1ccc(N)nc1=O | – | – | – | – | – | – | 6 | > 100 | – | – | – | – | – | – | – | –
Cc1ccc(NCc2cn(-c3ccccc3)nc2-c2ccc(Br)cc2)cc1 | 11 | > 100 | > 100 | > 100 | >9.1 | > 100 | > 100 | > 100 | > 100 | > 100 | > 100 | > 100 | > 100 | > 100 | > 100 | –
Cc1ccc(-c2nn(-c3ccccc3)cc2CNc2ccc(Cl)cc2)cc1 | 14 | > 100 | > 100 | > 100 | >7.1 | > 100 | > 100 | > 100 | > 100 | > 100 | > 100 | 34 | > 100 | > 100 | > 100 | Ratio CC50/EC50 [12]: >2.9
Cc1ccc(-c2nn(-c3ccccc3)cc2CNc2ccc(C(F)(F)F)cc2)cc1 | > 45 | > 45 | > 100 | > 45 | – | > 100 | > 88 | 88 | > 45 | 45 | > 100 | > 100 | > 45 | > 45 | > 100 | –
FC(F)(F)c1ccc(NCc2cn(-c3ccccc3)nc2-c2ccc(C(F)(F)F)cc2)cc1 | > 26 | > 26 | 26 | > 26 | – | > 100 | > 27 | 27 | > 26 | 26 | > 100 | > 37 | > 26 | > 26 | > 26 | –
FC(F)(F)c1ccc(NCc2cn(-c3ccccc3)nc2-c2ccc(Cl)cc2)cc1 | > 18 | > 18 | 31 | > 18 | – | > 100 | > 17 | 17 | > 18 | 18 | > 100 | > 17 | > 18 | > 18 | > 31 | –
Cc1ccc(NCc2cn(-c3ccccc3)nc2-c2ccc(C)cc2)cc1 | 28 | > 100 | > 100 | > 100 | >3.6 | > 100 | > 100 | > 100 | > 100 | > 100 | > 100 | > 100 | > 100 | > 100 | > 100 | –
FC(F)(F)c1ccc(NCc2cn(-c3ccccc3)nc2-c2ccc(Br)cc2)cc1 | > 28 | > 28 | 46 | > 28 | – | > 100 | > 20 | 20 | > 28 | 28 | > 100 | > 28 | > 28 | > 28 | > 46 | –
FC(F)(F)c1ccc(-c2nn(-c3ccccc3)cc2CNc2ccc(Cl)cc2)cc1 | > 10 | > 80 | 44 | > 80 | – | > 100 | > 31 | 31 | > 80 | 10 | > 100 | > 31 | > 80 | > 80 | > 44 | –
Brc1ccc(NCc2cn(-c3ccccc3)nc2-c2ccc(Br)cc2)cc1 | 8 | > 88 | > 100 | > 88 | 11 | > 100 | > 100 | > 100 | > 88 | 88 | > 100 | 54 | > 88 | > 88 | > 100 | Ratio CC50/EC50 [12]: >1.8
FC(F)(F)c1ccc(-c2nn(-c3ccccc3)cc2CNc2ccc(Br)cc2)cc1 | 5 | > 17 | 64 | > 17 | 3.4 | > 100 | > 28 | 28 | > 17 | 17 | > 100 | > 28 | > 17 | > 17 | > 64 | –
